Numbered stars: 1 amine (or outer) side, 2 acyl side, 3 side chain; on linkers, the order of the positions; unused ones are H or OH. Bridge positions count the residues as written; N and C are the ends. Square brackets hold non-standard residues; d marks the D form. Peptide text beside a SMILES is read from it. * marks the point of attachment. ξ: configuration not given here. Phe(3-CF3) = N[C@@H](Cc1cccc(C(F)(F)F)c1)C(=O)O; Phe(4-COOH) = N[C@@H](Cc1ccc(C(=O)O)cc1)C(=O)O; Bip = N[C@@H](Cc1ccc(-c2ccccc2)cc1)C(=O)O; NH(CH2)14COOH = O=C(O)CCCCCCCCCCCCCCN*; Phe(3-Me) = Cc1cccc(C[C@H](N)C(=O)O)c1; Phe(2-Me) = Cc1ccccc1C[C@H](N)C(=O)O; Val(3-OH) = CC(C)(O)[C@H](N)C(=O)O; X16 = O=C(C1CCC(CN[*:1])CC1)[*:2]; 4Pal = N[C@@H](Cc1ccncc1)C(=O)O; Cha = N[C@@H](CC1CCCCC1)C(=O)O; Cit = NC(=O)NCCC[C@H](N)C(=O)O; Thr(3ξ) = CC(O)[C@H](N)C(=O)O; Carboxymethyl = O=C(O)C*; Orn = NCCC[C@H](N)C(=O)O; Aun = NCCCCCCCCCCC(=O)O; Dab = NCC[C@H](N)C(=O)O; Nva = CCC[C@H](N)C(=O)O; Dap = NC[C@H](N)C(=O)O; AEEA = NCCOCCOCC(=O)O
Target: T1, PD-1/PD-L1 interaction (PE-labeled human PD-L1-Ig binding to Jurkat cell line over-expressing human PD-1) (Homo sapiens, UniProt Q15116)
T1 construct: expressed in transfected cells; host or cells: Jurkat
Experiment: Jurkat-PD-1 Cell Binding High-Content Screening Assay (CBA)
Assay type: cell-based
Conditions: Jurkat cell line over-expressing human PD-1; PE-labeled PD-L1-Ig 20 nM final; read-out: Jurkat hPD1-PDL1 IC50
Method in brief: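 Human PD-L1-Ig carrying a covalent PE label on its Ig tag serves as the probe, applied at 20 nM final to compound-treated (2 h, 37° C) Jurkat-hPD-1 cells in medium with 10% fetal calf serum. After one hour, fixation and nuclear staining precede high-content image analysis.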

T1 sequence (Q15116 25-288): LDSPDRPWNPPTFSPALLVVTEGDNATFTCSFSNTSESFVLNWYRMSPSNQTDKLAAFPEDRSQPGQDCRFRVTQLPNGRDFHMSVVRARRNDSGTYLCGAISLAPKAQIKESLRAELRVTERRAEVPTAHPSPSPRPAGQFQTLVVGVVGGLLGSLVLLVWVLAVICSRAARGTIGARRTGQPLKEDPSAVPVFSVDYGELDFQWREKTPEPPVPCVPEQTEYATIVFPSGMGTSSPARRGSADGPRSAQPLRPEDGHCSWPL

SMILES	IC50 [µM]
CC(C)C[C@H]1NC(=O)[C@H](Cc2cnc[nH]2)NC(=O)[C@H](Cc2ccc(OCC(=O)O)cc2)NC(=O)[C@H](Cc2ccc(-c3ccccc3)cc2)NC(=O)[C@H](Cc2ccc(C(=O)O)cc2)NC(=O)[C@H](Cc2cccc(C(F)(F)F)c2)NC(=O)[C@H](CC(=O)O)NC(=O)[C@H](Cc2ccc(OCC(=O)O)cc2)NC(=O)[C@H](C(C)O)NC(=O)CSC[C@@H](C(=O)N[C@@H](CCN)C(=O)NCCCCCCCCCCCCCCC(=O)O)NC(=O)[C@H](C(C)O)NC(=O)[C@H](C(C)(C)O)NC(=O)[C@H](CC2CCCCC2)NC(=O)[C@H](CCN)NC1=O (stereo partly drawn) [Compound 3861] ({CH2CO}-[Thr(3ξ)]Y(Carboxymethyl)D[Phe(3-CF3)][Phe(4-COOH)][Bip]Y(Carboxymethyl)H[dL][Dab][Cha][Val(3-OH)][Thr(3ξ)]C[Dab]-{NH(CH2)14COOH}; thioether N-14)	0.348
Cc1cccc(C[C@@H]2NC(=O)[C@H](CC(=O)O)NC(=O)[C@H](Cc3ccc(OCC(=O)O)cc3)NC(=O)[C@H](CN)NC(=O)CSC[C@@H](C(=O)NCC3CCC(C(=O)NCCCCCCCCCCC(=O)O)CC3)NC(=O)[C@H]([C@@H](C)O)NC(=O)[C@H](C(C)C)NC(=O)[C@H](CC3CCCCC3)NC(=O)[C@H](CCN)NC(=O)[C@@H](CC(C)C)NC(=O)[C@H](CCCN)NC(=O)[C@H](CCCNC(N)=O)NC(=O)[C@H](Cc3ccc(-c4ccccc4)cc3)NC(=O)[C@H](C(C)C)NC2=O)c1 (stereo partly drawn) [Compound 2623] ({CH2CO}-[Dap]Y(Carboxymethyl)D[Phe(3-Me)]V[Bip][Cit][Orn][dL][Dab][Cha]VTC[X16][Aun]-OH; thioether N-14)	0.0275
CC(=O)NCCCC[C@@H]1NC(=O)[C@H](C(C)(C)O)NC(=O)[C@H](CC2CCCCC2)NC(=O)[C@H](CCN)NC(=O)[C@@H](CC(C)C)NC(=O)[C@H](CCCN)NC(=O)[C@H](Cc2ccc(C(=O)O)cc2)NC(=O)[C@H](Cc2ccc(-c3ccccc3)cc2)NC(=O)[C@H](Cc2ccc(C(=O)O)cc2)NC(=O)[C@H](Cc2cccc(C)c2)NC(=O)[C@H](CC(=O)O)NC(=O)[C@H](Cc2ccc(OCC(=O)O)cc2)NC(=O)[C@H](Cc2ccc(OCC(=O)O)cc2)NC(=O)CSC[C@@H](C(=O)N[C@@H](CCN)C(=O)NCCCCCCCCCCCCCCC(=O)O)NC1=O [Compound 3865] ({CH2CO}-Y(Carboxymethyl)Y(Carboxymethyl)D[Phe(3-Me)][Phe(4-COOH)][Bip][Phe(4-COOH)][Orn][dL][Dab][Cha][Val(3-OH)]K(Ac)C[Dab]-{NH(CH2)14COOH}; thioether N-14)	0.119
Cc1cccc(C[C@@H]2NC(=O)[C@H](CC(=O)O)NC(=O)[C@H](Cc3ccc(OCC(=O)O)cc3)NC(=O)[C@H](CCCNC(=N)N)NC(=O)CSC[C@@H](C(=O)N[C@@H](CCCCN)C(=O)NCCCCCCCCCCC(=O)O)NC(=O)[C@H](CCCCN)NC(=O)[C@H](C(C)C)NC(=O)[C@H](CC3CCCCC3)NC(=O)[C@H](CCN)NC(=O)[C@@H](CC(C)C)NC(=O)[C@H](CCCN)NC(=O)[C@H](CCCNC(N)=O)NC(=O)[C@H](Cc3ccc(-c4ccccc4)cc3)NC(=O)[C@H](C(C)C)NC2=O)c1 [Compound 3470] ({CH2CO}-RY(Carboxymethyl)D[Phe(3-Me)]V[Bip][Cit][Orn][dL][Dab][Cha]VKCK[Aun]-OH; thioether N-14)	0.0248

Next, values leading:

IC50 [µM]	SMILES
0.0149	Cc1cccc(C[C@@H]2NC(=O)[C@H](CC(=O)O)NC(=O)[C@H](Cc3ccc(OCC(=O)O)cc3)NC(=O)[C@H](CN)NC(=O)CSC[C@@H](C(=O)N[C@@H](CCN)C(=O)NCCOCCOCC(=O)NCCCCCCCCCCC(=O)O)NC(=O)[C@H](CCCN)NC(=O)[C@H](C(C)C)NC(=O)[C@H](CC3CCCCC3)NC(=O)[C@H](CCN)NC(=O)[C@@H](CC(C)C)NC(=O)[C@H](CCCN)NC(=O)[C@H](Cc3ccc(O)cc3)NC(=O)[C@H](Cc3ccc(-c4ccccc4)cc3)NC(=O)[C@H](Cc3ccccc3C)NC2=O)c1 [Compound 2069] ({CH2CO}-[Dap]Y(Carboxymethyl)D[Phe(3-Me)][Phe(2-Me)][Bip]Y[Orn][dL][Dab][Cha]V[Orn]C[Dab][AEEA][Aun]-OH; thioether N-14)
0.0384	Cc1cccc(C[C@@H]2NC(=O)[C@H](CC(=O)O)NC(=O)[C@H](Cc3ccc(OCC(=O)O)cc3)NC(=O)[C@H](CCCNC(=N)N)NC(=O)CSC[C@@H](C(=O)NCCOCCOCC(=O)NCCCCCCCCCCC(=O)O)NC(=O)[C@H](C(C)O)NC(=O)[C@H](C(C)C)NC(=O)[C@H](CC3CCCCC3)NC(=O)[C@H](CCN)NC(=O)[C@@H](CC(C)C)NC(=O)[C@H](CCCN)NC(=O)[C@H](Cc3ccc(OCC(=O)O)cc3)NC(=O)[C@H](Cc3ccc(-c4ccccc4)cc3)NC(=O)[C@H](Cc3ccc(OCC(=O)O)cc3)NC2=O)c1 (stereo partly drawn) [Compound 3477] ({CH2CO}-RY(Carboxymethyl)D[Phe(3-Me)]Y(Carboxymethyl)[Bip]Y(Carboxymethyl)[Orn][dL][Dab][Cha]V[Thr(3ξ)]C[AEEA][Aun]-OH; thioether N-14)
0.0058	CCC[C@@H]1NC(=O)CSC[C@@H](C(=O)N[C@@H](CCN)C(=O)NCCCCCCCCCCC(=O)O)NC(=O)[C@H](CCC(=O)O)NC(=O)[C@H](C(C)(C)O)NC(=O)[C@H](CC2CCCCC2)NC(=O)[C@H](CCN)NC(=O)[C@@H](CC(C)C)NC(=O)[C@H](CCCN)NC(=O)[C@H](Cc2ccc(OCC(=O)O)cc2)NC(=O)[C@H](Cc2ccc(-c3ccccc3)cc2)NC(=O)[C@H](Cc2ccc(OCC(=O)O)cc2)NC(=O)[C@H](Cc2cccc(C)c2)NC(=O)[C@H](CC(=O)O)NC(=O)[C@H](Cc2ccc(OCC(=O)O)cc2)NC1=O [Compound 3795] ({CH2CO}-[Nva]Y(Carboxymethyl)D[Phe(3-Me)]Y(Carboxymethyl)[Bip]Y(Carboxymethyl)[Orn][dL][Dab][Cha][Val(3-OH)]EC[Dab][Aun]-OH; thioether N-14)
0.0068	Cc1cccc(C[C@@H]2NC(=O)[C@H](CC(=O)O)NC(=O)[C@H](Cc3ccc(OCC(=O)O)cc3)NC(=O)[C@H](Cc3ccncc3)NC(=O)CSC[C@@H](C(=O)N[C@@H](CCN)C(=O)NCCOCCOCC(=O)NCCCCCCCCCCC(=O)O)NC(=O)[C@H](CCC(=O)O)NC(=O)[C@H](C(C)(C)O)NC(=O)[C@H](CC3CCCCC3)NC(=O)[C@H](CCN)NC(=O)[C@@H](CC(C)C)NC(=O)[C@H](CCC(N)=O)NC(=O)[C@H](Cc3ccc(OCC(=O)O)cc3)NC(=O)[C@H](Cc3ccc(-c4ccccc4)cc3)NC(=O)[C@H](Cc3ccc(OCC(=O)O)cc3)NC2=O)c1 [Compound 3746] ({CH2CO}-[4Pal]Y(Carboxymethyl)D[Phe(3-Me)]Y(Carboxymethyl)[Bip]Y(Carboxymethyl)Q[dL][Dab][Cha][Val(3-OH)]EC[Dab][AEEA][Aun]-OH; thioether N-14)
0.114	Cc1cccc(C[C@@H]2NC(=O)[C@H](CC(=O)O)NC(=O)[C@H](Cc3ccc(OCC(=O)O)cc3)NC(=O)[C@H](CN)NC(=O)CSC[C@@H](C(=O)N[C@H](CC(=O)NCCCCCCCCCCC(=O)O)C(N)=O)NC(=O)[C@H]([C@@H](C)O)NC(=O)[C@H](C(C)C)NC(=O)[C@H](CC3CCCCC3)NC(=O)[C@H](CCN)NC(=O)[C@@H](CC(C)C)NC(=O)[C@H](CCCN)NC(=O)[C@H](Cc3ccc(O)cc3)NC(=O)[C@H](Cc3ccc(-c4ccccc4)cc3)NC(=O)[C@H](Cc3ccc(O)cc3)NC2=O)c1 [Compound 2736] ({CH2CO}-[Dap]Y(Carboxymethyl)D[Phe(3-Me)]Y[Bip]Y[Orn][dL][Dab][Cha]VTC[dD](Aun)-NH2; thioether N-14)

Source: patent publication US20260022142A1, “MACROCYCLIC IMMUNOMODULATORS” (Bristol-Myers Squibb Company, priority 2022, published 2026)
